The subject of experiment [1] is ulcer induced by pylorus-ligation. Nature of the experiment: Test of ulcer induced by pylorus-ligation. It counts as in vivo, wistar male rat. The following applies: 14 h; rat, 100 mg/kg, in the duodenum immediately after ligating the pylorus; hydrochloride salts; read-out: Percentage of inhibition of ulcer formation. As to the method: (§1) With respect to anti-ulcer effect of the compounds having the general formula (I), there were carried out a test of ulcer induced by pylorus-ligation, which ulcer is induced mainly due to offensive factors; a test of ulcer induced by hydrochloric acid/ethanol, which ulcer is induced mainly due to defensive factors such as mucosal blood flow and mucus; and a test of ulcer induced by a stress of restraint plus water-immersion, which ulcer is induced due to both of offensive and defensive factors. Further, there were carried out a test of ulcer induced by acetic acid as a chronic ulcer model and a test of cure-prolonged ulcer induced by acetic acid. Also, there was examined an activity of increasing gastric mucosal blood flow, which activity brings about acceleration of regeneration of the gastric mucosa. As test compounds, hydrochloride salts were used.
The pylorus of a wistar male rat weighing 230 to 250 g, which had fasted for 48 hours, was ligated under ether-anesthesia, according to a usual method. After 14 hours, the animal was sacrificed by ether and the stomach was taken out therefrom.
The area of the ulcer generated on the fore-stomach was measured and the total area of the ulcer per rat was classified into the following six grades to give ulcer coefficients (Table 4).
Each of them was suspended in 0.5% methylcellulose solution and administered in the duodenum immediately after ligating the pylorus, in a dose of 100 mg/kg (body weight), respectively. To control group, only the medium for the medicament solution was administered in an amount of 0.25 ml/100 g (body weight).
The obtained results were subjected to the following formula to calculate a percentage of inhibition of ulcer formation. Six rats were used in each group for the test: [formula]

The test system of experiment [2] is ulcer induced by a stress of restraint plus water-immersion. Nature of the experiment: Test of ulcer induced by a stress of restraint plus water-immersion. It is filed as in vivo, ddY male mouse. The following applies: 7 h; mouse, 30 mg/kg oral, 15 minutes before the load of the stress; hydrochloride salts; read-out: Percentage of inhibition of ulcer formation. As to the method:
as §1
A ddY male mouse weighing 20 to 25 g, which had fasted for 18 hours, was put into a stress cage, and was loaded with a stress by immersing it in a water tank at 23° C., to a level of a xiphoid. After 7 hours, the animal was sacrificed by dislocating the cervical vertebrae and the stomach was taken out therefrom. The length of the ulcer generated on the glandular stomach was measured and the total thereof was regarded as the ulcer coefficient (mm).
To control group, only the medium for the medicament solution was orally administered in an amount of 0.1 ml/10 g (body weight) 15 minutes before the load of the stress.
(§2) The obtained results were subjected to the same formula as in the test of ulcer induced by pylorus-ligation, to calculate a percentage of inhibition of ulcer formation. Six rats were used in each group for the test.

Experiment [3] deals with ulcer induced by hydrochloric acid/ethanol. Nature of the experiment: Test of ulcer induced by hydrochloric acid/ethanol. The following applies: 1 h; rat, 30 mg/kg oral, 30 minutes before hydrochloric acid/ethanol; hydrochloride salts; read-out: Percentage of inhibition of ulcer formation. It counts as in vivo, wistar male rat. As for the experimental part: as §1
To a wistar male rat weighing 220 to 240 g, which had fasted and thirsted for 24 hours, was orally administered 150 mM hydrochloric acid/70% ethanol solution in an amount of 5 ml/kg (body weight). After 1 hour, the animal was sacrificed by dislocating the cervical vertebrae and the stomach was taken out therefrom. The length of the ulcer generated on the glandular stomach was measured and the total thereof was regarded as the ulcer coefficient (mm).
To control group, only the medium for the medicament solution was orally administered in an amount of […] (body weight), 30 minutes before the administration of hydrochloric acid/ethanol.
as §2

For experiment [4], the system named is gastric mucosal blood flow. Nature of the experiment: Activity of increasing gastric mucosal blood flow. It is filed as in vivo, wistar male rat. The settings on record: rat, urethane-anesthesia, 220 μg/kg intravenous, 60 minutes after administration. As for the experimental part: as §1
An amount of the mucosal blood flow in the body of the stomach of a wistar male rat weighing 220 to 240 g under urethane-anesthesia was measured by means of a laser doppler blood flow meter. As test compounds, there were used the compound of the present invention and, as comparative compound, FRG-8813. Each of them was intravenously administered in a dose of 220 μg/kg. A percentage of increase of the blood flow was calculated 60 minutes after the administration. Five rats were used for each group for the test.

The test system of experiment [5] is cure-prolonged ulcer induced by acetic acid. Nature of the experiment: Test of cure-prolonged ulcer induced by acetic acid. It counts as in vivo, wistar male rat. The following applies: rat, 50 mg/kg oral, twice a day; cure prolonged with indomethacin 1 mg/kg s.c. for 13 days. As to the method:
as §1
Into the junction of the glandular stomach and the antrum, of a wistar male rat weighing 220 to 240 g, was injected subserosally 30 μl of 20% acetic acid to generate an ulcer induced by acetic acid. From 2 days after the generation of the ulcer, indomethacin was injected subcutaneously in the regions of back of the rat in a dose of 1 mg/kg, once a day for 13 days to prolong the cure of the ulcer induced by acetic acid.
Each of them was suspended in 0.5% methylcellulose solution, and administered orally in a dose of 50 mg/kg, twice a day (in the morning and in the evening) from 13 days, respectively. The animal was sacrificed by ether on the day after the last administration, and the stomach was taken out therefrom. The area of the ulcer was measured. The obtained results were subjected to the following formula to calculate a percentage of improvement for curing ulcer. To control group, only the medium for the medicament solution was administered in an amount of 0.5 ml/100 g (body weight). Twenty rats were used in each group for the test. [formula]

Experiment [6] relates to ulcer induced by acetic acid. Nature of the experiment: Test of ulcer induced by acetic acid. It is filed as in vivo, wistar male rat. The settings on record: rat, 15 mg/kg oral, twice a day from 2 days after generation of the ulcer. As for the experimental part:
as §1
Into the junction of the glandular stomach and the antrum, of a wistar male rat weighing 220 to 240 g, was injected subserosally […] of 20% acetic acid to generate an ulcer induced by acetic acid. […] Each of them was suspended in 0.5% methylcellulose solution, and administered orally in a dose of 15 mg/kg, twice a day (in the morning and in the evening) from 2 days after the generation of the ulcer for days, respectively. The animal was sacrificed by ether on the day after the last administration, and the stomach was taken out therefrom. The area of the ulcer was measured.
The obtained results were subjected to the following formula to calculate a percentage of improvement for curing ulcer. To control group, only the medium for the medicament solution was administered in an amount of 0.5 ml/100 g (body weight). Twenty rats were used in each group for the test. [formula]

Consider `CCOC(=O)NCC[S+]([O-])CC(=O)NC/C=C\COc1cccc(CN2CCCCC2)c1` (stereo not drawn) [Example 75, N-[4-[3-(piperidinomethyl)phenoxy]-cis-2-butenyl]-2-[2-(ethoxycarbonylamino)ethylsulfinyl]acetamide], for which the inhibition in vivo at 100 mg/kg in experiment [1] was 96%. For the same compound, the values for the inhibition in vivo at 30 mg/kg in experiment [2] and in experiment [3] were 87% and 82%, respectively. In experiment [4], the “Percentage of increase of blood flow” value is 15%. Moreover, the figures for the “Percentage of improvement for curing ulcer” value in experiment [5] and in experiment [6] were 49% and 24%, respectively.

Consider `O=C(C[S+]([O-])Cc1ccco1)NC/C=C\COc1cc(CN2CCCCC2)ccn1` (stereo not drawn) [FRG-8813, reference compound], for which the inhibition in vivo at 100 mg/kg in experiment [1] turned out to be 27%. For the same compound, the inhibition in vivo at 30 mg/kg in experiment [2] amounted to 85%; in experiment [3], 70%. Besides, in experiment [4], the “Percentage of increase of blood flow” value is recorded as 3%. In addition, the “Percentage of improvement for curing ulcer” value was -5% in experiment [5] and 12% in experiment [6].

The record behind these values is patent US5672597A, “Acetamide derivative” (Kaken Pharmaceutical Co., Ltd., priority 1992, dated 1997).
